The values that follow are results of earlier work, collected in patent US20250345336A1, “ALLOPURINOL ORAL SUSPENSION” (Extrovis AG, priority 2024, published 2025).

The structures appear in SMILES notation.

With `Oc1ncnc2[nH]ncc12` [Allopurinol, 1,5-dihydro-4H-pyrazolo [3,4-d] pyrimidin-4-one], the aqueous solubility entry was “poor aqueous solubility”.
